# Measurements from US20120004304A1, “BILE SALT ADJUVANT FOR ANIMALS FOR IMPROVING FAT UTILIZATION EFFICIENCY IN THE BODIES OF ANIMALS, AND ANIMAL FEED COMPRISING SAME” (KIMIN INC., priority 2009, published 2012).
# How the values were obtained:
# [1] = Fat emulsifying capacity test; assay type: physicochemical; settings: 75% water, 24.3% fat, 0.7% emulsifier (3% of fat), stirred
# Protocol: In order to confirm emulsifying capacity of sodiumstearoyl-2-lactylate(hereinafter, referred to as “SSL”) of the present invention, 75% water, 24.3% fat and 0.7% SSL (3% of the amount of fat used) were added and stirred. POE (20)-glyceride, mono-glyceride and lecithin were used as comparative examples.
# [2] = Measurement of serum biochemical index; design: species or system ICR rats; settings: rat, in vivo
# Protocol: Feed for animal tests purchased from Shin Chon Feed Co., Ltd, were prepared and various additives were added thereto to obtain a molded animal feed with a predetermined size.
# 4-week old male ICR rats with a weight of […] were obtained from the laboratory animal center of Seoul National University, were divided into five groups (n=12) and maintained at a temperature of 23±2° C. and a variety of specific animal feeds were administered thereto. At this time, animals of each group were treated with the following chemicals: (percentage (%) means % by weight) • Control Group: animal feed+soybean oil 5% • Experimental Group: animal feed+soybean oil 5%+SSL 0.1% (HLB 20) • Comparative Example 1: animal feed+soybean oil 5%+lecithin 0.1% (HLB 4) • Comparative Example 2: animal feed+soybean oil 5%+glycerin monocaprate 0.1% (HLB 7) • Comparative Example 3: animal feed+soybean oil 5%+POE (20) sorbitan monolaurate 0.1% (HLB 16)
# At 15 hours after the final weight of the test animals was measured (25 days), blood was collected from supraorbital […] blood vessel plexus of the rats using a capillary tube, serum was separated, and the following biochemical indexes were measured using a kit. […]
# [3] = Fat digestion percentage and ME with SSL in animal feed; assay type: in vivo; settings: 0.05% by weight of SSL in animal feed
# Description: The use of SSL enables improvement in digestion and absorption efficiency of fats, growth promotion, improvement of qualities, and an increase in production yield. From the results of preferred experimental examples, it can be seen that, when 0.05% by weight of SSL is used, fat digestion percentage is increased to about 5 to 10% and ME is increased to about 100 kcal/kg.
emulsifying capacity (appearance after stirring) [1],Molecule,serum GPT and GOT versus control [2],ME increase [3]
layer separation,POE (20)-glyceride,–,–
no emulsification,mono-glyceride,–,–

Molecule,emulsifying capacity (appearance after stirring) [1],serum GPT and GOT versus control [2],ME increase [3]
"CCCCCCCCCCCCCCCCCC(=O)OC(C)C(=O)OC(C)C(=O)[O-].[Na+] (centres unmarked) [SSL, sodium stearoyl-2-lactylate]",homogeneous dispersion,considerable improvement in serum GPT and GOT,about 100 kcal/kg
